Source: ChEMBL document CHEMBL5303573, “Mapping human microbiome drug metabolism by gut bacteria and their genes” (Nature, 2019)

What was measured:
[1] = The drug is tested on Providencia rettgeri strain: DSM1131 for biotransformation. The drug concentrations were measured before and after a 12-h incubation by liquid-chromatography-coupled mass spectrometry (LC–MS); format: ADME; set-up: dose 2 uM, timepoint 0 vs 12 hours; conditions: 2 µM
[2] = The drug is tested on Bacteroides caccae strain: ATCC43185 for biotransformation. The drug concentrations were measured before and after a 12-h incubation by liquid-chromatography-coupled mass spectrometry (LC–MS); conditions: 2 µM
[3] = bacteroides intestinalis, 12 h, 2 µM
Description: The drug is tested on Bacteroides intestinalis strain: DSM17393 for biotransformation. The drug concentrations were measured before and after a 12-h incubation by liquid-chromatography-coupled mass spectrometry (LC–MS)

[4] = limosilactobacillus reuteri cf48-3a, 12 h, 2 µM
Description: The drug is tested on Lactobacillus reuteri CF48-3A strain: BEI HM-102 for biotransformation. The drug concentrations were measured before and after a 12-h incubation by liquid-chromatography-coupled mass spectrometry (LC–MS)

[5] = The drug is tested on Blautia luti strain: DSM14534 for biotransformation. The drug concentrations were measured before and after a 12-h incubation by liquid-chromatography-coupled mass spectrometry (LC–MS); format: ADME; set-up: dose 2 uM, timepoint 0 vs 12 hours; conditions: 2 µM
[6] = bacteroides eggerthii, 12 h, 2 µM
Description: The drug is tested on Bacteroides eggerthii strain: DSM20697 for biotransformation. The drug concentrations were measured before and after a 12-h incubation by liquid-chromatography-coupled mass spectrometry (LC–MS)

[7] = The drug is tested on Collinsella intestinalis strain: DSM13280 for biotransformation. The drug concentrations were measured before and after a 12-h incubation by liquid-chromatography-coupled mass spectrometry (LC–MS); conditions: 2 µM
[8] = victivallis vadensis, 12 h, 2 µM
Description: The drug is tested on Victivallis vadensis strain: ATCC BAA-548 for biotransformation. The drug concentrations were measured before and after a 12-h incubation by liquid-chromatography-coupled mass spectrometry (LC–MS)

[9] = The drug is tested on Bacteroides fragilis strain: ATCC43859 for biotransformation. The drug concentrations were measured before and after a 12-h incubation by liquid-chromatography-coupled mass spectrometry (LC–MS); conditions: 2 µM
[10] = bifidobacterium adolescentis, 12 h, 2 µM
Description: The drug is tested on Bifidobacterium adolescentis strain: ATCC 15703 for biotransformation. The drug concentrations were measured before and after a 12-h incubation by liquid-chromatography-coupled mass spectrometry (LC–MS)

[11] = The drug is tested on Clostridium sporogenes strain: ATCC15579 for biotransformation. The drug concentrations were measured before and after a 12-h incubation by liquid-chromatography-coupled mass spectrometry (LC–MS); conditions: 2 µM
[12] = The drug is tested on Enterococcus faecalis strain: V583 for biotransformation. The drug concentrations were measured before and after a 12-h incubation by liquid-chromatography-coupled mass spectrometry (LC–MS); conditions: 2 µM
[13] = The drug is tested on Bacteroides xylanisolvens strain: DSM18836 for biotransformation. The drug concentrations were measured before and after a 12-h incubation by liquid-chromatography-coupled mass spectrometry (LC–MS); conditions: 2 µM
[14] = The drug is tested on Clostridium scindens strain: ATCC35704 for biotransformation. The drug concentrations were measured before and after a 12-h incubation by liquid-chromatography-coupled mass spectrometry (LC–MS); conditions: 2 µM
[15] = The drug is tested on Bacteroides coprophilus strain: DSM18228 for biotransformation. The drug concentrations were measured before and after a 12-h incubation by liquid-chromatography-coupled mass spectrometry (LC–MS); conditions: 2 µM
[16] = The drug is tested on Clostridium ramosum strain: DSM1402 for biotransformation. The drug concentrations were measured before and after a 12-h incubation by liquid-chromatography-coupled mass spectrometry (LC–MS); conditions: thomasclavelia ramosa, 2 µM
[17] = bacteroides thetaiotaomicron, 12 h, 2 µM
Description: The drug is tested on Bacteroides thetaiotaomicron strain: 3731 for biotransformation. The drug concentrations were measured before and after a 12-h incubation by liquid-chromatography-coupled mass spectrometry (LC–MS)

[18] = parabacteroides johnsonii, 12 h, 2 µM
Description: The drug is tested on Parabacteroides johnsonii strain: DSM18315 for biotransformation. The drug concentrations were measured before and after a 12-h incubation by liquid-chromatography-coupled mass spectrometry (LC–MS)

[19] = The drug is tested on Parabacteroides merdae strain: ATCC43184 for biotransformation. The drug concentrations were measured before and after a 12-h incubation by liquid-chromatography-coupled mass spectrometry (LC–MS); conditions: 2 µM
[20] = bacteroides thetaiotaomicron, 12 h, 2 µM; remark: listed apart in the source
Description: The drug is tested on Bacteroides thetaiotaomicron strain: VPI-5482 for biotransformation. The drug concentrations were measured before and after a 12-h incubation by liquid-chromatography-coupled mass spectrometry (LC–MS)

Row | Bacterial Biotransformation [1] | Bacterial Biotransformation [2] | Bacterial Biotransformation [3] | Bacterial Biotransformation [4] | Bacterial Biotransformation [5] | Bacterial Biotransformation [6] | Bacterial Biotransformation [7] | Bacterial Biotransformation [8] | Bacterial Biotransformation [9] | Bacterial Biotransformation [10] | Bacterial Biotransformation [11] | Bacterial Biotransformation [12] | Bacterial Biotransformation [13] | Bacterial Biotransformation [14] | Bacterial Biotransformation [15] | Bacterial Biotransformation [16] | Bacterial Biotransformation [17] | Bacterial Biotransformation [18] | Bacterial Biotransformation [19] | Bacterial Biotransformation [20] | Compound
1 | Compound metabolized | Compound metabolized | Compound metabolized | Compound metabolized | Compound metabolized | Compound metabolized | Compound metabolized | Compound metabolized | Compound metabolized | Compound metabolized | Compound metabolized | Compound metabolized | Compound metabolized | Compound metabolized | Compound metabolized | Compound metabolized | Compound metabolized | Compound metabolized | Compound metabolized | Compound metabolized | COc1c(C)c2c(c(O)c1C/C=C(\C)CCC(=O)OCCN1CCOCC1)C(=O)OC2 [MYCOPHENOLATE MOFETIL]
2 | Compound NOT metabolized | Compound metabolized | Compound metabolized | Compound NOT metabolized | Compound metabolized | Compound metabolized | Compound metabolized | Compound metabolized | Compound metabolized | Compound metabolized | Compound metabolized | Compound metabolized | Compound metabolized | Compound metabolized | Compound NOT metabolized | Compound metabolized | Compound metabolized | Compound metabolized | Compound metabolized | Compound metabolized | CCS(=O)(=O)CCn1c([N+](=O)[O-])cnc1C [TINIDAZOLE]
3 | Compound NOT metabolized | Compound metabolized | Compound metabolized | Compound NOT metabolized | Compound metabolized | Compound NOT metabolized | Compound NOT metabolized | Compound NOT metabolized | Compound NOT metabolized | Compound NOT metabolized | Compound metabolized | Compound NOT metabolized | Compound metabolized | Compound NOT metabolized | Compound metabolized | Compound metabolized | Compound metabolized | Compound metabolized | Compound metabolized | Compound metabolized | COc1ccccc1OCCNCC(O)COc1cccc2[nH]c3ccccc3c12 (stereo not given) [CARVEDILOL]
4 | Compound metabolized | Compound metabolized | Compound metabolized | Compound metabolized | Compound metabolized | Compound metabolized | Compound NOT metabolized | Compound metabolized | Compound metabolized | Compound metabolized | Compound metabolized | Compound NOT metabolized | Compound NOT metabolized | Compound metabolized | Compound metabolized | Compound metabolized | Compound metabolized | Compound metabolized | Compound metabolized | Compound metabolized | CC(Oc1c(Cl)cccc1Cl)C1=NCCN1 (stereo not given) [LOFEXIDINE]
5 | Compound metabolized | Compound metabolized | Compound metabolized | Compound metabolized | Compound metabolized | Compound metabolized | Compound metabolized | Compound metabolized | Compound metabolized | Compound metabolized | Compound metabolized | Compound metabolized | Compound metabolized | Compound metabolized | Compound metabolized | Compound metabolized | Compound metabolized | Compound metabolized | Compound metabolized | Compound metabolized | COc1ccc2[nH]c([S+]([O-])Cc3ncc(C)c(OC)c3C)nc2c1 (stereo not given) [OMEPRAZOLE]
6 | Compound metabolized | Compound metabolized | Compound metabolized | Compound metabolized | Compound metabolized | Compound metabolized | Compound metabolized | Compound metabolized | Compound metabolized | Compound metabolized | Compound metabolized | Compound metabolized | Compound metabolized | Compound metabolized | Compound metabolized | Compound metabolized | Compound metabolized | Compound metabolized | Compound metabolized | Compound metabolized | CC(=O)OCC(=O)[C@@]12N=C(C)O[C@@H]1C[C@H]1[C@@H]3CCC4=CC(=O)C=C[C@]4(C)[C@H]3[C@@H](O)C[C@@]12C [DEFLAZACORT]

Row | Compound | Bacterial Biotransformation [1] | Bacterial Biotransformation [2] | Bacterial Biotransformation [3] | Bacterial Biotransformation [4] | Bacterial Biotransformation [5] | Bacterial Biotransformation [6] | Bacterial Biotransformation [7] | Bacterial Biotransformation [8] | Bacterial Biotransformation [9] | Bacterial Biotransformation [10] | Bacterial Biotransformation [11] | Bacterial Biotransformation [12] | Bacterial Biotransformation [13] | Bacterial Biotransformation [14] | Bacterial Biotransformation [15] | Bacterial Biotransformation [16] | Bacterial Biotransformation [17] | Bacterial Biotransformation [18] | Bacterial Biotransformation [19] | Bacterial Biotransformation [20]
7 | CN(C)C(=O)Oc1cc(OC(=O)N(C)C)cc(C(O)CNC(C)(C)C)c1 (stereo not given) [BAMBUTEROL] | Compound NOT metabolized | Compound NOT metabolized | Compound NOT metabolized | Compound NOT metabolized | Compound NOT metabolized | Compound NOT metabolized | Compound NOT metabolized | Compound NOT metabolized | Compound NOT metabolized | Compound NOT metabolized | Compound NOT metabolized | Compound NOT metabolized | Compound NOT metabolized | Compound NOT metabolized | Compound NOT metabolized | Compound NOT metabolized | Compound NOT metabolized | Compound NOT metabolized | Compound NOT metabolized | Compound NOT metabolized
8 | N[C@@H](Cc1ccc(N(CCCl)CCCl)cc1)C(=O)O | Compound metabolized | Compound metabolized | Compound metabolized | Compound metabolized | Compound metabolized | Compound metabolized | Compound metabolized | Compound metabolized | Compound metabolized | Compound metabolized | Compound metabolized | Compound metabolized | Compound metabolized | Compound metabolized | Compound metabolized | Compound metabolized | Compound metabolized | Compound metabolized | Compound metabolized | Compound metabolized
